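Growth conditions: 96-well plates. Treatment: test compound, 48 hours, 5 concentrations. Analysis: linear interpolation between bracketing concentrations; unreached endpoints set to highest concentration. At the TGI there is no net growth.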

Common to all, as to assay: inhibition of tumour cell growth, NCI panel, 48 h
The subject of test [1] is M14 melanoma.
Test [2] relates to SK-MEL-2 melanoma.
Test [3] has as its system UO-31 renal.
For test [4], the system named is KM12 colon.
The subject of test [5] is SNB-75 CNS.
Test [6] has as its system SW-620 colon.
The test system of test [7] is SF-539 CNS.
The subject of test [8] is OVCAR-3 ovarian.
Test [9] deals with OVCAR-8 ovarian.
Test [10] concerns SK-OV-3 ovarian.
The subject of test [11] is SK-MEL-28 melanoma.
Test [12] relates to CCRF-CEM leukemia.
The test system of test [13] is HT29 colon.
The subject of test [14] is IGROV1 ovarian.
In test [15] the test system is NCI/ADR-RES ovarian.
The test system of test [16] is NCI-H460 lung.
The subject of test [17] is NCI-H522 lung.
Test [18] deals with HCT-15 colon.
Test [19] concerns A498 renal.

For `COC(=O)[C@H]1COC(=O)N1`, the TGI in test [1], in test [2], in test [3], in test [4], in test [5] and in test [6] was greater than 100 µM throughout. Further, the TGI in test [7], in [8], in test [9], in [10], in test [11] and in test [12] was greater than 100 µM throughout. Further, the TGI in test [13], in test [14], in test [15], in test [16], in test [17] and in [18] was greater than 100 µM in each case. The TGI in test [19] is greater than 100 µM.
With `COc1cc(/C=C\c2nnc(/C=C\c3ccc(O)c(OC)c3)s2)ccc1O`, the TGI is 9.58 µM in [1]; 26 µM in test [2]; 15.3 µM in test [3]; 15.4 µM in [4]; 8.83 µM in test [5]; greater than 23.7 µM in test [6]. The TGI is greater than 26.4 µM in test [7]; 10.7 µM in test [8]; greater than 42.9 µM in test [9]; 30.6 µM in [10]; greater than 100 µM in [11]; 14.5 µM in [12]. In addition, the TGI in test [13] is 23.4 µM; in test [14] it was greater than 36.6 µM; in test [15], 14.2 µM; in [16], greater than 35.2 µM; in [17] it was 5.57 µM; in test [18], 18.1 µM. Moreover, the TGI in test [19] was determined as 6.4 µM.
As to `CCCCCCCCCCCCCCCCCCNc1nc(=O)n(C2CC(O)C(COP(=O)(O)OCC3OC(n4ccc(N)nc4=O)C(O)C3O)O2)cc1F` (stereo unspecified), the TGI in test [1], in test [2], in test [3], in test [4], in [5] and in test [6] was greater than 100 µM each time. Further, the TGI in test [7] was greater than 100 µM; in test [8] it was greater than 100 µM; in test [9] it was 23 µM; in test [10], greater than 100 µM; in test [11] it was greater than 100 µM; in test [12], greater than 100 µM. Further, the TGI in [13] was 29.2 µM; in [14], greater than 100 µM; in test [15], greater than 100 µM; in test [16] it was greater than 100 µM; in test [17], 65.3 µM; in test [18] it was 38 µM. This molecule registered a TGI in [19] greater than 100 µM.
Take `COc1cc2c(cc1O)C1(Cc3ccc4c(c3C1=O)OCO4)N(C)CC2` (stereo unspecified): the TGI in [1], in test [2], in [3], in test [4], in test [5] and in [6] was greater than 100 µM each time. Further, the TGI in test [7], in test [8], in test [9], in [10], in test [11] and in [12] was greater than 100 µM in each case. The TGI in test [13], in [14], in test [15], in test [16], in test [17] and in [18] was greater than 100 µM each time. This molecule also returned a TGI in test [19] greater than 100 µM.

The values above are taken from PubChem BioAssay (NCI).
